Experimental data: ChEMBL document CHEMBL1124634, “Synthesis and antirhinovirus activity of 6-(dimethylamino)-2-(trifluoromethyl)-9-(substituted benzyl)-9H-purines” (J Med Chem, 1989)
Each block holds one compound with its values, some of them ahead of it.

How the values were obtained:
Human rhinovirus sp. [1] = assay: Antiviral activity against rhinoviral-1B serotype in a plaque inhibition assay using monolayers of M-HeLa cells; assay type: functional, organism-based
Human rhinovirus sp. [2] = assay: Antiviral activity against rhinoviral 3 serotype in a plaque inhibition assay using monolayers of M-HeLa cells; assay type: functional, organism-based
Human rhinovirus sp. [3] = assay: Antiviral activity against rhinoviral 29 serotype in a plaque inhibition assay using monolayers of M-HeLa cells; assay type: functional, organism-based
Human rhinovirus sp. [4] = assay: Antiviral activity against rhinoviral 15 serotype in a plaque inhibition assay using monolayers of M-HeLa cells; assay type: functional, organism-based
Human rhinovirus sp. [5] = assay: Antiviral activity against rhinoviral 31 serotype in a plaque inhibition assay using monolayers of M-HeLa cells; assay type: functional, organism-based
Human rhinovirus sp. [6] = assay: Antiviral activity against rhinoviral 14 serotype in a plaque inhibition assay using monolayers of M-HeLa cells; assay type: functional, organism-based
Human rhinovirus sp. [7] = assay: Percent inhibitory activity at 8 uM against rhinoviral 13 serotype in a plaque inhibition assay using monolayers of M-HeLa cells; assay type: functional
Human rhinovirus sp. [8] = assay: Antiviral activity against rhinoviral 18 serotype in a plaque inhibition assay using monolayers of M-HeLa cells; assay type: functional, organism-based
Human rhinovirus sp. [9] = assay: Antiviral activity against rhinoviral 21 serotype in a plaque inhibition assay using monolayers of M-HeLa cells; assay type: functional, organism-based
Human rhinovirus sp. [10] = assay: Antiviral activity against rhinoviral 12 serotype in a plaque inhibition assay using monolayers of M-HeLa cells; assay type: functional, organism-based
Human rhinovirus sp. [11] = assay: Antiviral activity against rhinoviral 16 serotype in a plaque inhibition assay using monolayers of M-HeLa cells; assay type: functional, organism-based
Human rhinovirus sp. [12] = assay: Antiviral activity against rhinoviral 4 serotype in a plaque inhibition assay using monolayers of M-HeLa cells; assay type: functional, organism-based
Human rhinovirus sp. [13] = assay: Antiviral activity against rhinoviral 2 serotype in a plaque inhibition assay using monolayers of M-HeLa cells; assay type: functional, organism-based
Human rhinovirus sp. [14] = assay: Percent inhibitory activity at 8 uM against rhinoviral 5 serotype in a plaque inhibition assay using monolayers of M-HeLa cells; assay type: functional
Human rhinovirus sp. [15] = assay: Antiviral activity against rhinoviral-1A serotype in a plaque inhibition assay using monolayers of M-HeLa cells; assay type: functional, organism-based
Human rhinovirus sp. [16] = assay: Antiviral activity against rhinoviral 30 serotype in a plaque inhibition assay using monolayers of M-HeLa cells; assay type: functional, organism-based
Human rhinovirus sp. [17] = assay: Percent inhibitory activity at 8 uM against rhinoviral 19s erotype in a plaque inhibition assay using monolayers of M-HeLa cells; assay type: functional
Human rhinovirus sp. [18] = assay: Antiviral activity against rhinoviral 8 serotype in a plaque inhibition assay using monolayers of M-HeLa cells; assay type: functional, organism-based
Human rhinovirus sp. [19] = assay: Antiviral activity against rhinoviral 9 serotype in a plaque inhibition assay using monolayers of M-HeLa cells; assay type: functional, organism-based
Human rhinovirus sp. [20] = assay: Percent inhibitory activity at 8 uM against rhinoviral 14 serotype in a plaque inhibition assay using monolayers of M-HeLa cells; assay type: functional
Human rhinovirus sp. [21] = assay: Percent inhibitory activity at 8 uM against rhinoviral 21 serotype in a plaque inhibition assay using monolayers of M-HeLa cells; assay type: functional
Human rhinovirus sp. [22] = assay: Antiviral activity against rhinoviral 5 serotype in a plaque inhibition assay using monolayers of M-HeLa cells; assay type: functional, organism-based
Human rhinovirus sp. [23] = assay: Percent inhibitory activity at 8 uM against rhinoviral 15 serotype in a plaque inhibition assay using monolayers of M-HeLa cells; assay type: functional
Human rhinovirus sp. [24] = assay: Percent inhibitory activity at 8 uM against rhinoviral 29 serotype in a plaque inhibition assay using monolayers of M-HeLa cells; assay type: functional
Human rhinovirus sp. [25] = assay: Antiviral activity against rhinoviral-19 serotype in a plaque inhibition assay using monolayers of M-HeLa cells; assay type: functional, organism-based
Human rhinovirus sp. [26] = assay: Percent inhibitory activity at 8 uM against rhinoviral 4 serotype in a plaque inhibition assay using monolayers of M-HeLa cells; assay type: functional
Human rhinovirus sp. [27] = assay: Antiviral activity against rhinoviral-18 serotype in a plaque inhibition assay using monolayers of M-HeLa cells; assay type: functional, organism-based
Human rhinovirus sp. [28] = assay: Percent inhibitory activity at 8 uM against rhinoviral 3 serotype in a plaque inhibition assay using monolayers of M-HeLa cells; assay type: functional
Human rhinovirus sp. [29] = assay: Percent inhibitory activity at 8 uM against rhinoviral 30 serotype in a plaque inhibition assay using monolayers of M-HeLa cells; assay type: functional
Human rhinovirus sp. [30] = assay: Percent inhibitory activity at 8 uM against rhinoviral 31 serotype in a plaque inhibition assay using monolayers of M-HeLa cells; assay type: functional

IC50 (Human rhinovirus sp. [1]): 280 µM
Compound: CN(C)c1nc(C(F)(F)F)nc2c1ncn2Cc1ccccc1[N+](=O)[O-]

IC50 (Human rhinovirus sp. [1]): 135 µM
Compound: COc1cc(Cl)ccc1Cn1cnc2c(N(C)C)nc(C(F)(F)F)nc21

IC50 (Human rhinovirus sp. [2]): 8 µM
IC50 (Human rhinovirus sp. [3]): 3.2 µM
IC50 (Human rhinovirus sp. [4]): 5.7 µM
IC50 (Human rhinovirus sp. [5]): 5.5 µM
IC50 (Human rhinovirus sp. [6]): 8.1 µM
IC50 (Human rhinovirus sp. [8]): 7.5 µM
IC50 (Human rhinovirus sp. [9]): 5 µM
IC50 (Human rhinovirus sp. [10]): 9.5 µM
IC50 (Human rhinovirus sp. [11]): 1.2 µM
IC50 (Human rhinovirus sp. [12]): 7.6 µM
IC50 (Human rhinovirus sp. [13]): 7.3 µM
IC50 (Human rhinovirus sp. [15]): 0.76 µM
IC50 (Human rhinovirus sp. [16]): 4.6 µM
IC50 (Human rhinovirus sp. [18]): 8.3 µM
IC50 (Human rhinovirus sp. [1]): 0.03 µM
IC50 (Human rhinovirus sp. [19]): 0.7 µM
Compound: CN(C)c1nc(C(F)(F)F)nc2c1ncn2Cc1ccc(Br)cc1
Inhibition (Human rhinovirus sp. [7]): 40%
Inhibition (Human rhinovirus sp. [14]): 37%
Inhibition (Human rhinovirus sp. [17]): 27%

IC50 (Human rhinovirus sp. [1]): 0.13 µM
Compound: CN(C)c1nc(C(F)(F)F)nc2c1ncn2Cc1ccc(N)cc1

IC50 (Human rhinovirus sp. [1]): 0.13 µM
Compound: CN(C)c1nc(C(F)(F)F)nc2c1ncn2Cc1cccc([N+](=O)[O-])c1

IC50 (Human rhinovirus sp. [2]): 8 µM
IC50 (Human rhinovirus sp. [3]): 2.5 µM
IC50 (Human rhinovirus sp. [5]): 4.2 µM
IC50 (Human rhinovirus sp. [8]): 6.8 µM
IC50 (Human rhinovirus sp. [10]): 10 µM
IC50 (Human rhinovirus sp. [22]): 11 µM
IC50 (Human rhinovirus sp. [11]): 2.1 µM
IC50 (Human rhinovirus sp. [12]): 3.7 µM
IC50 (Human rhinovirus sp. [13]): 5.2 µM
IC50 (Human rhinovirus sp. [15]): 2.8 µM
IC50 (Human rhinovirus sp. [16]): 6.6 µM
IC50 (Human rhinovirus sp. [18]): 10 µM
IC50 (Human rhinovirus sp. [1]): 1 µM
IC50 (Human rhinovirus sp. [19]): 1.5 µM
Compound: CC(C)Oc1ccc(Cn2cnc3c(N(C)C)nc(C(F)(F)F)nc32)cc1
Inhibition (Human rhinovirus sp. [20]): 22%
Inhibition (Human rhinovirus sp. [7]): 39%
Inhibition (Human rhinovirus sp. [21]): 40%
Inhibition (Human rhinovirus sp. [23]): 40%
Inhibition (Human rhinovirus sp. [17]): 33%

IC50 (Human rhinovirus sp. [5]): 12 µM
IC50 (Human rhinovirus sp. [6]): 9 µM
IC50 (Human rhinovirus sp. [25]): 10 µM
IC50 (Human rhinovirus sp. [27]): 10 µM
IC50 (Human rhinovirus sp. [10]): 7.8 µM
IC50 (Human rhinovirus sp. [22]): > 8 µM
IC50 (Human rhinovirus sp. [11]): 1.9 µM
IC50 (Human rhinovirus sp. [13]): 9 µM
IC50 (Human rhinovirus sp. [15]): 0.82 µM
IC50 (Human rhinovirus sp. [18]): 9.5 µM
IC50 (Human rhinovirus sp. [1]): 0.12 µM
IC50 (Human rhinovirus sp. [19]): 2 µM
Compound: Cc1cc(Cl)ccc1Cn1cnc2c(N(C)C)nc(C(F)(F)F)nc21
Inhibition (Human rhinovirus sp. [24]): 32%
Inhibition (Human rhinovirus sp. [26]): 25%
Inhibition (Human rhinovirus sp. [7]): 23%
Inhibition (Human rhinovirus sp. [21]): 22%
Inhibition (Human rhinovirus sp. [23]): 11%
Inhibition (Human rhinovirus sp. [28]): 29%
Inhibition (Human rhinovirus sp. [29]): 28%

IC50 (Human rhinovirus sp. [1]): 4.6 µM
Compound: CN(C)c1nc(C(F)(F)F)nc2c1ncn2Cc1cccc(C(=O)O)c1

IC50 (Human rhinovirus sp. [1]): 2.1 µM
Compound: CCCCOc1ccc(Cn2cnc3c(N(C)C)nc(C(F)(F)F)nc32)cc1

IC50 (Human rhinovirus sp. [1]): 6.9 µM
Compound: CN(C)c1nc(C(F)(F)F)nc2c1ncn2Cc1ccc(Cl)cc1NC=O

IC50 (Human rhinovirus sp. [1]): 70 µM
Compound: COc1cc(C)ccc1Cn1cnc2c(N(C)C)nc(C(F)(F)F)nc21

IC50 (Human rhinovirus sp. [1]): 0.3 µM
Compound: CN(C)c1nc(C(F)(F)F)nc2c1ncn2Cc1cccc(N)c1

IC50 (Human rhinovirus sp. [1]): 0.37 µM
Compound: CC(=O)Nc1ccc(Cn2cnc3c(N(C)C)nc(C(F)(F)F)nc32)cc1

IC50 (Human rhinovirus sp. [1]): 4.6 µM
Compound: CN(C)c1nc(C(F)(F)F)nc2c1ncn2Cc1ccc(C(=O)O)cc1

IC50 (Human rhinovirus sp. [1]): 5 µM
Compound: CCOC(=O)c1ccc(Cn2cnc3c(N(C)C)nc(C(F)(F)F)nc32)cc1

IC50 (Human rhinovirus sp. [1]): 0.25 µM
Compound: CN(C)c1cccc(Cn2cnc3c(N(C)C)nc(C(F)(F)F)nc32)c1

IC50 (Human rhinovirus sp. [2]): 14 µM
IC50 (Human rhinovirus sp. [4]): 5.8 µM
IC50 (Human rhinovirus sp. [6]): 7.1 µM
IC50 (Human rhinovirus sp. [27]): 14 µM
IC50 (Human rhinovirus sp. [10]): 5.2 µM
IC50 (Human rhinovirus sp. [22]): > 8 µM
IC50 (Human rhinovirus sp. [11]): 1.6 µM
IC50 (Human rhinovirus sp. [12]): 7.2 µM
IC50 (Human rhinovirus sp. [13]): 6.5 µM
IC50 (Human rhinovirus sp. [15]): 2.4 µM
IC50 (Human rhinovirus sp. [18]): 6.2 µM
IC50 (Human rhinovirus sp. [1]): 0.17 µM
IC50 (Human rhinovirus sp. [19]): 1.5 µM
Compound: CN(C)c1nc(C(F)(F)F)nc2c1ncn2Cc1ccc(Cl)c(N)c1
Inhibition (Human rhinovirus sp. [30]): 29%
Inhibition (Human rhinovirus sp. [24]): 26%
Inhibition (Human rhinovirus sp. [7]): 18%
Inhibition (Human rhinovirus sp. [21]): 10%
Inhibition (Human rhinovirus sp. [17]): 40%
Inhibition (Human rhinovirus sp. [29]): 34%

IC50 (Human rhinovirus sp. [1]): 1.1 µM
Compound: CN(C)c1nc(C(F)(F)F)nc2c1ncn2Cc1cccc(OCc2ccccc2)c1

IC50 (Human rhinovirus sp. [1]): 0.2 µM
Compound: CN(C)c1nc(C(F)(F)F)nc2c1ncn2Cc1ccc(CO)cc1

IC50 (Human rhinovirus sp. [1]): 0.17 µM
Compound: CN(C)c1nc(C(F)(F)F)nc2c1ncn2Cc1ccc(O)cc1

IC50 (Human rhinovirus sp. [1]): 2.6 µM
Compound: COC(=O)c1cccc(Cn2cnc3c(N(C)C)nc(C(F)(F)F)nc32)c1

IC50 (Human rhinovirus sp. [1]): 0.53 µM
Compound: CN(C)c1nc(C(F)(F)F)nc2c1ncn2Cc1ccc(Cl)cc1[N+](=O)[O-]

IC50 (Human rhinovirus sp. [1]): 0.1 µM
Compound: COc1cccc(Cn2cnc3c(N(C)C)nc(C(F)(F)F)nc32)c1
